target: HIV-1 PR (Human immunodeficiency virus type 1 group M subtype B, UniProt P04585); experiment: HIV-protease inhibitory activity assay (FRET peptide substrate); type: biochemical; details: Test Example 1
Description: Test Example 1: HIV-Protease Inhibitory Activity Assay
The HIV-1 PR assay was performed by using a FRET (Fluorescence Resonance Energy Transfer) peptide substrate (AnaSpec, Inc., Fremont, Calif.). Initially in the intact FRET peptide, the fluorescence of HiLyte Fluor 488 is quenched by QXL 520. Upon substrate cleavage by PR, the fluorescence is recovered and can be monitored. Test compounds diluted in DMSO was plated to the wells of 384-well plate. Then, mixed with assay buffer (0.1 mol/L NaAc containing 0.5 mol/L NaCl, 1 mmol/L EDTA, 1 mmol/L DTT, and 0.05% Tween 20, pH 4.8) in the presence or absence of HIV-1 PR (0.83 ng), and let it stand for 5 minutes at room temperature. Background fluorescence intensity was measured and let it stand for another 15 minutes at room temperature. The enzyme reaction was started by adding substrate diluted in assay buffer at final concentration of 2 μmol/L, and let it stand for 60 minutes at room temperature. After 60 minutes, the fluorescence intensity was measured. Fluorescence intensity was measured with excitation and emission wavelengths of 485 nm and 535 nm, respectively.
IC50 values were determined using non-linear regression four-parameter logistic equation, y=A+((B−A)/(1+((C/x)̂D))) where A=minimum inhibition, B=maximum inhibition, C=log IC50, D=slope factor, x=concentration of compound and y=% inhibition.

Row | Compound | IC50 [nM]
1 | COc1ccc(S(=O)(=O)N(CC(C)C)CC(O)C(Cc2ccc(NCc3nc4ccccc4cc3C(=O)Nc3sc4c(c3C(=O)O)CC(C)(C)CC4)cc2)NC(=O)OC2COC3OCCC23)cc1 (centres unmarked) [Compound I-885] | 3.48
2 | COc1ccc(S(=O)(=O)N(CC2CCCC2)CC(O)C(Cc2ccc(NCc3cc(C(F)(F)F)ccc3-c3sc4c(c3C(=O)O)CC(C)(C)CC4)cc2)NC(=O)OC2COC3OCCC23)cc1 (centres unmarked) [Compound I-870] | 9.33
3 | CC(C)CN(CC(O)C(Cc1ccc(OCc2cc(C(=O)O)ccc2-c2ccc(F)cc2F)cc1)NC(=O)OC1COC2(C)OCCC12)S(=O)(=O)c1ccc2ncsc2c1 (centres unmarked) [Compound I-151] | 1.88
4 | CC(C)CN(CC(O)C(Cc1ccc(OCc2cc(C(=O)O)cc(-c3ccc(F)cc3F)c2)cc1)NC(=O)OC1COC2(C)OCCC12)S(=O)(=O)c1ccc2ncsc2c1 (centres unmarked) [Compound I-60] | 1.6
5 | COc1ccc(S(=O)(=O)N(CC(C)C)CC(O)C(Cc2ccc(NCc3cc(C)c(-c4sc5c(c4C(=O)O)CC(C)(C)CC5)cc3C)cc2)NC(=O)OC2COC3(C)OCCC23)cc1 (centres unmarked) [Compound I-556] | 5.45
6 | COc1ccc(S(=O)(=O)N(CC(C)C)CC(O)C(Cc2ccc(N(CCCc3ccccc3)Cc3ccccc3-c3sc4c(c3C(=O)O)CC(C)(C)CC4)cc2)NC(=O)OC2COC3(C)OCCC23)cc1 (centres unmarked) [Compound I-426] | 8.1
7 | COc1ccc(S(=O)(=O)N(CC(C)C)CC(O)C(Cc2ccc(NCc3cnn4ccc(C(=O)O)nc34)cc2)NC(=O)OC2COC3(C)OCCC23)cc1 (centres unmarked) [Compound I-320] | 1.95
8 | COc1ccc(S(=O)(=O)N(CC(C)C)CC(O)C(Cc2ccc(NCc3ccccc3-c3ccc4[nH]c(C(=O)O)cc4c3)cc2)NC(=O)OC2COC3(C)OCCC23)cc1 (centres unmarked) [Compound I-897] | 2.46
9 | COc1ccc(S(=O)(=O)N(CC(C)C)C[C@@H](O)[C@H](Cc2ccc(OCc3ccc(-c4ccc(F)cc4F)cc3-c3nnn[nH]3)cc2)NC(=O)O[C@H]2CO[C@@]3(C)OCC[C@@H]23)cc1 [Compound I-22] | 0.99
10 | COc1ccc(S(=O)(=O)N(CC(C)C)CC(O)C(Cc2ccc(OCc3cccc(-c4ccc(F)cc4F)c3C(=O)O)cc2)NC(=O)OC2COC3(C)OCCC23)cc1 (centres unmarked) [Compound I-153] | 1.08
11 | COc1ccc(S(=O)(=O)N(CC(C)C)CC(O)C(Cc2ccc(N(Cc3ccccc3-c3sc4c(c3C(=O)O)CC(C)(C)CC4)CC3CCCCC3)cc2)NC(=O)OC2COC3(C)OCCC23)cc1 (centres unmarked) [Compound I-42] | 23.4
12 | COc1ccc(S(=O)(=O)N(CC(C)C)CC(O)C(Cc2ccc(OC3CCCN(c4ccccc4-c4sc5c(c4C(=O)O)CC(C)(C)CC5)C3)cc2)NC(=O)OC2COC3(C)OCCC23)cc1 (centres unmarked) [Compound I-100] | 1.98
13 | COc1ccc(S(=O)(=O)N(CC(C)C)CC(O)C(Cc2ccc(NC3CCc4c(-c5sc6c(c5C(=O)O)CC(C)(C)CC6)cccc43)cc2)NC(=O)OC2COC3(C)OCCC23)cc1 (centres unmarked) [Compound I-697] | 2.9
14 | COc1ccc(S(=O)(=O)N(CC(C)C)CC(O)C(Cc2ccc(OCC3CCCCC3Nc3ccc(C#N)cc3-c3sc4c(c3C(=O)O)CC(C)(C)CC4)cc2)NC(=O)OC2COC3(C)OCCC23)cc1 (centres unmarked) [Compound I-259] | 10.9
15 | COc1ccc(S(=O)(=O)N(CC(C)C)CC(O)C(Cc2ccc(NCc3cc4c(cc3-c3sc5c(c3C(=O)O)CC(C)(C)CC5)OCC(=O)N4C)cc2)NC(=O)OC2COC3(C)OCCC23)cc1 (centres unmarked) [Compound I-759] | 2.55
16 | COc1ccc(S(=O)(=O)N(CC(C)C)CC(O)C(Cc2ccc(NCc3cc(-c4sc5c(c4C(=O)O)CC(C)(C)CC5)ccc3OC(F)(F)F)cc2)NC(=O)OC2COC3(C)OCCC23)cc1 (centres unmarked) [Compound I-294] | 3.92
17 | COc1ccc(S(=O)(=O)N(CC(C)C)CC(O)C(Cc2ccc(OC3CCN(c4ncccc4-c4sc5c(c4C(=O)O)CC(C)(C)CC5)C3)cc2)NC(=O)OC2COC3(C)OCCC23)cc1 (centres unmarked) [Compound I-355] | 2.35
18 | COc1ccc(S(=O)(=O)N(CC(C)C)CC(O)C(Cc2ccc(OCC3CCC(Nc4ccc(C#N)cc4-c4sc5c(c4C(=O)O)CC(C)(C)CC5)CC3)cc2)NC(=O)OC2COC3(C)OCCC23)cc1 (centres unmarked) [Compound I-330] | 40.6
19 | COc1ccc(S(=O)(=O)N(CC(C)C)CC(O)C(Cc2ccc(COc3ccc(-c4ccc(F)cc4F)cc3C(=O)O)cc2)NC(=O)OC2COC3(C)OCCC23)cc1 (centres unmarked) [Compound I-63] | 0.89
20 | COc1ccc(S(=O)(=O)N(CC(C)C)C[C@@H](O)[C@H](Cc2ccc(OCc3ccccc3-c3sc4c(c3C(=O)O)CC(C)(C)CC4)cc2)NC(=O)O[C@H]2CCC[C@H]3O[C@@H]4OCC[C@@H]4[C@@H]23)cc1 [Compound I-909] | 3.25
21 | COc1ccc(S(=O)(=O)N(CC(C)C)CC(O)C(Cc2ccc(OCC3COCC3c3sc4c(c3C(=O)O)CC(C)(C)CC4)cc2)NC(=O)OC2COC3(C)OCCC23)cc1 (centres unmarked) [Compound I-394] | 1.64

Row | Compound | IC50 [nM]
22 | COc1ccc(S(=O)(=O)N(CC(C)C)CC(O)C(Cc2ccc(N(C)Cc3ccncc3-c3sc4c(c3C(=O)O)CC(C)(C)CC4)cc2)NC(=O)OC2COC3(C)OCCC23)cc1 (centres unmarked) [Compound I-489] | 1.81
23 | COc1ccc(S(=O)(=O)N(CC(C)C)CC(O)C(Cc2ccc(NCc3ccccc3OCC(=O)O)cc2)NC(=O)OC2COC3(C)OCCC23)cc1 (centres unmarked) [Compound I-315] | 1.98
24 | COC(=O)c1ccc(CNc2ccc(CC(NC(=O)OC3COC4(C)OCCC34)C(O)CN(CC(C)C)S(=O)(=O)c3ccc(OC)cc3)cc2)c(-c2sc3c(c2C(=O)O)CC(C)(C)CC3)c1 (centres unmarked) [Compound I-408] | 1.8
25 | COc1ccc(S(=O)(=O)N(CC(C)C)CC(O)C(Cc2ccc(N(Cc3ccccc3-c3sc4c(c3C(=O)O)CC(C)(C)CC4)CC3CC3)cc2)NC(=O)OC2COC3(C)OCCC23)cc1 (centres unmarked) [Compound I-460] | 3.58
26 | COc1ccc(S(=O)(=O)N(CC(C)C)CC(O)C(Cc2ccc(N(C)Cc3cc(C#N)ccc3-c3sc4c(c3C(=O)O)CC(C)(C)CC4)cc2)NC(=O)OC2COC3(C)OCCC23)cc1 (centres unmarked) [Compound I-452] | 2.6
27 | COc1ccc(S(=O)(=O)N(CC(C)C)CC(O)C(Cc2ccc(N3CCc4nc(-c5sc6c(c5C(=O)O)CC(C)(C)CC6)sc4C3)cc2)NC(=O)OC2COC3(C)OCCC23)cc1 (centres unmarked) [Compound I-225] | 2.31
28 | COc1ccc(S(=O)(=O)N(CC(C)C)CC(O)C(Cc2ccc(OCc3ccccc3-c3nc(C4=CCC(C)(C)CC4)sc3C(=O)O)cc2)NC(=O)OC2COC3OCCC23)cc1 (centres unmarked) [Compound I-820] | 0.94
29 | CC(C)CN(C[C@@H](O)[C@H](Cc1ccc(OCc2ccc(-c3ccc(F)cc3F)cc2C(=O)O)cc1)NC(=O)O[C@H]1CO[C@@]2(C)OCC[C@@H]12)S(=O)(=O)c1ccc2ncsc2c1 [Compound I-18] | 1.63
30 | COc1ccc(S(=O)(=O)N(CC(C)C)CC(O)C(Cc2ccc(OCc3ccc4sc(-c5ccc(F)cc5)c(C(=O)O)c4c3)cc2)NC(=O)OC2COC3OCCC23)cc1 (centres unmarked) [Compound I-819] | 0.72
31 | COc1ccc(S(=O)(=O)N(CC(C)C)CC(O)C(Cc2ccc(OCc3ccccc3-c3sc(N4CCC(C)(C)CC4)nc3C(=O)O)cc2)NC(=O)OC2COC3OCCC23)cc1 (centres unmarked) [Compound I-844] | 1.01
32 | COc1ccc(S(=O)(=O)N(CC(C)C)CC(O)C(Cc2ccc(N(C)Cc3cc(-c4ccc5ccccc5c4)ccc3-c3sc4c(c3C(=O)O)CC(C)(C)CC4)cc2)NC(=O)OC2COC3(C)OCCC23)cc1 (centres unmarked) [Compound I-692] | 26.1
33 | COc1ccc(S(=O)(=O)N(CC(C)C)CC(O)C(Cc2ccc(N(C)Cc3cc(N4CCCCC4=O)ccc3-c3sc4c(c3C(=O)O)CC(C)(C)CC4)cc2)NC(=O)OC2COC3(C)OCCC23)cc1 (centres unmarked) [Compound I-731] | 1.96
34 | COc1ccc(S(=O)(=O)N(CC2CCCC2)CC(O)C(Cc2ccc(OC3CCN(C(=O)c4ccc(Cl)cc4-c4sc5c(c4C(=O)O)CC(C)(C)CC5)C3)cc2)NC(=O)OC2COC3(C)OCCC23)cc1 (centres unmarked) [Compound I-210] | 2.15
35 | COc1ccc(S(=O)(=O)N(CC(C)C)CC(O)C(Cc2ccc(N3CCC(Oc4ccccc4C(=O)Nc4sc5c(c4C(=O)O)CC(C)(C)CC5)C3)cc2)NC(=O)OC2COC3(C)OCCC23)cc1 (centres unmarked) [Compound I-595] | 2.17
36 | COc1ccc(S(=O)(=O)N(CC(C)C)CC(O)C(Cc2ccc(NCc3c(C)c(C)c(-c4sc5c(c4C(=O)O)CC(C)(C)CC5)c(C)c3C)cc2)NC(=O)OC2COC3(C)OCCC23)cc1 (centres unmarked) [Compound I-535] | 43.1
37 | COc1ccc(S(=O)(=O)N(CC(C)C)CC(O)C(Cc2ccc(OCc3ccccc3-c3oc4c(c3C(=O)O)CCCC4)cc2)NC(=O)OC2COC3OCCC23)cc1 (centres unmarked) [Compound I-834] | 1.15
38 | COc1ccc(S(=O)(=O)N(CC(C)C)CC(O)C(Cc2ccc(N(C)Cc3ccc(Cl)cc3C(=O)Nc3sc4c(c3C(=O)O)CC(C)(C)CC4)cc2)NC(=O)OC2COC3(C)OCCC23)cc1 (centres unmarked) [Compound I-659] | 9.51
39 | COc1ccc(S(=O)(=O)N(CC(C)C)CC(O)C(Cc2ccc(N(C)Cc3ccc(N4CCCC4=O)cc3-c3sc4c(c3C(=O)O)CC(C)(C)CC4)cc2)NC(=O)OC2COC3(C)OCCC23)cc1 (centres unmarked) [Compound I-744] | 2.14
40 | COc1ccc(S(=O)(=O)N(CC(C)C)CC(O)C(Cc2ccc(NCc3cc4c(cc3-c3sc5c(c3C(=O)O)CC(C)(C)CC5)OCC(=O)N4)cc2)NC(=O)OC2COC3(C)OCCC23)cc1 (centres unmarked) [Compound I-754] | 2.49
41 | COc1ccc(S(=O)(=O)N(CC(C)C)CC(O)C(Cc2ccc(OCc3ccccc3-c3sc4c(c3C(=O)O)CC(F)(F)CC4)cc2)NC(=O)OC2COC3(C)OCCC23)cc1 (centres unmarked) [Compound I-54] | 1.24
